Columns and labels:
gabapentin receptor = target: T1, gabapentin receptor (Rattus norvegicus, UniProt P54290); assay: Binding to gabapentin receptor (inhibition of [3H]gabapentin binding); settings: compound 1 μM; 0.02 μM [3H] gabapentin; receptor from brains of Wister rats
T1 construct: a gabapentin receptor was prepared from the brains of Wister rats; from tissue; host or cells: Wistar rat brain, prepared by the method of Suman-Chauhan et al. 1993
Method: According to the method of Suman-Chauhan et al. (Eur. J. Pharmacol, 244 (3), pp. 293-301, 1993), a gabapentin receptor was prepared from the brains of Wister rats. Binding of the following compounds (1 μM) to the gabapentin receptor was investigated on the basis of inhibition of binding of gabapentin in the presence of 0.02 μM [^3H] gabapentin. As a result, the following inhibition ratios were observed. • 4-Amino-3-(trimethylsilyl)butanoic acid: 35% • 4-Amino-3-(t-butyldimethylsilyl)butanoic acid: 13% • 4-Amino-3-(trimethylsilylmethyl)butanoic acid: 28% • 4-Amino-3-(dimethyl-n-octylsilyl)butanoic acid: 32%

rat Chung model = assay: Analgesic action test using Chung model; type: in vivo; settings: single oral administration, 30 minutes after, physical stimulation, N=6
Method: A rat Chung model was used. 4-Amino-3-(trimethylsilyl)butanoic acid (Compound A), 4-amino-3-(trimethylsilylmethyl)butanoic acid (Compound B), 4-amino-3-[(1-methyl-1-silacyclopentan-1-yl)methyl]butanoic acid (Compound C), 4-(1-methyl-1-silacyclohexan-1-yl)-3-cyanobutanoic acid (Compound D), and pregabalin (positive control, Compound E) were each orally administered once to the rats, and analgesic action was examined 30 minutes thereafter on the basis of pain threshold values obtained with a physical stimulation (total number of groups: 11, N=6). As a result, the pain threshold values (g) of the agent-administered groups and the control group were as follows. • Control (0.5% MC): 5.3±0.4 • Compound A: 7.8±0.5 (60 mg/kg), 6.2±0.4 (20 mg/kg) • Compound B: 7.9±0.4 (60 mg/kg), 5.4±0.2 (20 mg/kg) • Compound C: 8.8±0.3 (60 mg/kg), 5.7±0.6 (20 mg/kg) • Compound D: 7.3±0.5 (60 mg/kg), 4.8±0.2 (20 mg/kg) • Compound E: 8.3±0.2 (30 mg/kg), 6.3±0.3 (10 mg/kg)

T1 sequence (P54290 25-944 limits assumed): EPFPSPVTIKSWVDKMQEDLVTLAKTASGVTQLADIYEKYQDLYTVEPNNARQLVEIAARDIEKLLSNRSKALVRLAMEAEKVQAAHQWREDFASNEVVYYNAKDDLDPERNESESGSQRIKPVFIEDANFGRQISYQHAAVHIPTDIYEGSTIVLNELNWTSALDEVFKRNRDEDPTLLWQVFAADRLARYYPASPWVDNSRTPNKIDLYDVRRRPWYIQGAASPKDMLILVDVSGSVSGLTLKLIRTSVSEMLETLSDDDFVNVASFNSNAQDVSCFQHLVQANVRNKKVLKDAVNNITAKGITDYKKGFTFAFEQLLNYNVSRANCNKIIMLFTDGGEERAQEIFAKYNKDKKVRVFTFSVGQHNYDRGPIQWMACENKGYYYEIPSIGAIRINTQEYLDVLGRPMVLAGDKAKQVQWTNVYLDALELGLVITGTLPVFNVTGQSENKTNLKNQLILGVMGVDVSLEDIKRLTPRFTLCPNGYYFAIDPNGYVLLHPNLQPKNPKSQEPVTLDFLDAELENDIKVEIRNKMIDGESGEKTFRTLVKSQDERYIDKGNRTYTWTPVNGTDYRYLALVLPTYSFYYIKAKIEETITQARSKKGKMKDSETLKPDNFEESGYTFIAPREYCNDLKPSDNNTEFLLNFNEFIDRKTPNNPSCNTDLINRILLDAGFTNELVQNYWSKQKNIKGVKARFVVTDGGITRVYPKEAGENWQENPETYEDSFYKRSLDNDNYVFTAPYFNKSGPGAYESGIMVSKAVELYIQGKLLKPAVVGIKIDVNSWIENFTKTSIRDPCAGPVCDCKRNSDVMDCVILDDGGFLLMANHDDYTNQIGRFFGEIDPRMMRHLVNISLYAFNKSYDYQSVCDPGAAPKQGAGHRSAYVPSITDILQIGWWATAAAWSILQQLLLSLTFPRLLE
T1 sequence (P54290 945-1091 limits assumed): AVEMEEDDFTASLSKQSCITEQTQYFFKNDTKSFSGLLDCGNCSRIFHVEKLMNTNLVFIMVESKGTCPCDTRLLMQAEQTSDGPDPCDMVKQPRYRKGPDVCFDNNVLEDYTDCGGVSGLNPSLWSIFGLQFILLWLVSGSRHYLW

SMILES | inhibition ratio (inhibition of binding of gabapentin) (gabapentin receptor) [%] | pain threshold value (rat Chung model; 20 mg/kg) [g] | pain threshold value (rat Chung model; 60 mg/kg) [g] | melting point [°C] | further results
CCCCCCCC[Si](C)(C)C(CN)CC(=O)O (stereo not drawn) [4-amino-3-(dimethyl-n-octylsilyl)butanoic acid] | 32 | – | – | – | –
C[Si]1(CC(CN)CC(=O)O)CCCC1 (stereo not drawn) [Compound C, 4-amino-3-[(1-methyl-1-silacyclopentan-1-yl)methyl]butanoic acid] | – | 5.7 ± 0.6 | 8.8 ± 0.3 | 133 to 135 | –
CC(C)C[C@H](CN)CC(=O)O [Compound E, (S)-3-(aminomethyl)-5-methylhexanoic acid, reference compound] | – | – | – | – | pain threshold value (rat Chung model; 10 mg/kg): 6.3 ± 0.3 g; pain threshold value (rat Chung model; 30 mg/kg): 8.3 ± 0.2 g
C[Si](C)(C)CC(CN)CC(=O)O (stereo not drawn) [Compound B, 4-amino-3-(trimethylsilylmethyl)butanoic acid] | 28 | 5.4 ± 0.2 | 7.9 ± 0.4 | – | –
C[Si]1(CC(C#N)CC(=O)O)CCCCC1 (stereo not drawn) [Compound D, 4-(1-methyl-1-silacyclohexan-1-yl)-3-cyanobutanoic acid] | – | 4.8 ± 0.2 | 7.3 ± 0.5 | – | –
C[Si]1(C(CN)CC(=O)O)CCCCC1 (stereo not drawn) | – | – | – | 160 to 161.5 | –
CC(C)(C)[Si](C)(C)C(CN)CC(=O)O (stereo not drawn) [4-amino-3-(tert-butyldimethylsilyl)butanoic acid] | 13 | – | – | – | –
C[Si]1(CC(CN)CC(=O)O)CCCCC1 (stereo not drawn) | – | – | – | 140.5 to 143 | –
C[Si](C)(C)C(CN)CC(=O)O (stereo not drawn) [Compound A, 4-amino-3-(trimethylsilyl)butanoic acid] | 35 | 6.2 ± 0.4 | 7.8 ± 0.5 | 199 to 201 | –
